{"source": "patent US20260297542A1", "about": "“HERBICIDE RESISTANT PLANTS” (SYNGENTA CROP PROTECTION AG, priority 2023, published 2026)", "test_in_all_cases": "E. coli hemG growth inhibition by herbicide, AtPPO1 variant", "assay_type_in_all_cases": "cell-based", "details_in_all_cases": "read-out: percentage growth inhibition", "key": {"AtPPO1 T431R": {"target": "T1, AtPPO1 T431R (Arabidopsis thaliana, UniProt P55826, T431R)", "T1 construct": "expressed in transfected cells; host or cells: E. coli BL21(DE3) hemG (pET24a, T7 promoter)", "T1 sequence (P55826 35-537 T431R)": "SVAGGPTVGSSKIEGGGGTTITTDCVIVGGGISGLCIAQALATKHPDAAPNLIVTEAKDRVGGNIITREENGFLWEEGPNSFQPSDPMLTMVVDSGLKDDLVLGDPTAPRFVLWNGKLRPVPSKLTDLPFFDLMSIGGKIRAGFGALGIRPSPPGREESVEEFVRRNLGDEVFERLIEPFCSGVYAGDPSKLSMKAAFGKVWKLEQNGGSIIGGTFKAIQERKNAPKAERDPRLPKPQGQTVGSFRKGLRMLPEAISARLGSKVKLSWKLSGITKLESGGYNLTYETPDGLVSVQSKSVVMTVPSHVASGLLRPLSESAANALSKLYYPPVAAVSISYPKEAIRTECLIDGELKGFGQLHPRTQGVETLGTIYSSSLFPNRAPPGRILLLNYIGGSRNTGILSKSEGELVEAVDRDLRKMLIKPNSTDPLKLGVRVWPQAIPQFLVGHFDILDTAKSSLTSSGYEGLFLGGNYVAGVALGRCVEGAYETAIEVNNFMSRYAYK", "from_the_text": "(§1) A pET24a plasmid containing a DNA sequence encoding a variant of PPO1 derived from Arabidopsis thaliana (AtPPO1), codon-optimised for expression in E. coli and under control of a T7 promoter, was synthesised by Twist Bioscience (SEQ ID NO:3). This plasmid was used as the basis of a Site Saturation Variant Library (SSVL) that substituted the codons at 352 amino acid positions for codons that encoded one of the other 19 amino acids, or removed the codon altogether, resulting in a translation product with a deletion at that position.\n(§2) The SSVL was batch-transformed by electroporation into an E. coli BL21(DE3) hemG strain with the hemG gene replaced by CmR conferring resistance to chloramphenicol and spread onto LA supplemented with 50 μg/mL kanamycin, 25 μg/mL chloramphenicol and 20 μg/mL hematin. Each batch consisted of all the plasmids that contained variants at two sites.\n(§3) Colonies from batch transformations were inoculated into 500 μL of Terrific broth supplemented with 50 μg/mL kanamycin, 25 μg/mL chloramphenicol and 20 μg/mL hematin in 96-deepwell blocks. Cultures were grown for 24 hours at 37° C. with shaking at 250 rpm.\n(§4) Overnight cultures were centrifuged and the cell pellets resuspended with 500 μL of Terrific broth. The resuspended cultures were used at a ratio of 1:100 to inoculate a fresh 96-deepwell block containing 500 μL of Terrific broth supplemented with 0.1 mM IPTG, 50 μg/mL kanamycin, 25 μg/mL chloramphenicol and 6.25 ppm of herbicide […] or E or 0.78 ppm herbicide B or DMSO. Assay cultures were grown for 24 hours at 37° C. with shaking at 250 rpm with the OD600 being measured at 24 hours post inoculation. Strains that grew in both DMSO and herbicide were determined to be herbicide tolerant with the percentage of growth inhibition being calculated as below: […]"}, "AtPPO1 Y426T": {"target": "T2, AtPPO1 Y426T (Arabidopsis thaliana, UniProt P55826, Y426T)", "T2 construct": "expressed in transfected cells; host or cells: E. coli BL21(DE3) hemG (pET24a, T7 promoter)", "T2 sequence (P55826 35-537 Y426T)": "T1 sequence (P55826 35-537 T431R) with Y392T, R397T", "from_the_text": "as §1, §2, §3, §4"}, "AtPPO1 Y361D": {"target": "T3, AtPPO1 Y361D (Arabidopsis thaliana, UniProt P55826, Y361D)", "T3 construct": "expressed in transfected cells; host or cells: E. coli BL21(DE3) hemG (pET24a, T7 promoter)", "T3 sequence (P55826 35-537 Y361D)": "T1 sequence (P55826 35-537 T431R) with Y327D, R397T", "from_the_text": "as §1, §2, §3, §4"}, "AtPPO1 V447I": {"target": "T4, AtPPO1 V447I (Arabidopsis thaliana, UniProt P55826, V447I)", "T4 construct": "expressed in transfected cells; host or cells: E. coli BL21(DE3) hemG (pET24a, T7 promoter)", "T4 sequence (P55826 35-537 V447I)": "T1 sequence (P55826 35-537 T431R) with R397T, V413I", "from_the_text": "as §1, §2, §3, §4"}}, "note": "Changes are numbered by the printed parent chain.", "data": [{"smiles": "CCOC(=O)[C@]1(C)CC(c2cc(-n3c(=O)n(C)c(=S)n(C)c3=O)c(F)cc2Cl)=NO1", "note": "[Herbicide D, ethyl (5S)-3-[2-chloro-5-(3,5-dimethyl-2,6-dioxo-4-thioxo-1,3,5-triazinan-1-yl)-4-fluoro-phenyl]-5-methyl-4H-isoxazole-5-carboxylate]", "values": [{"measurement": "inhibition at 6.25 ppm", "setting": "AtPPO1 T431R", "value": 28, "unit": "%"}, {"measurement": "inhibition at 6.25 ppm", "setting": "AtPPO1 Y426T", "value": 12, "unit": "%"}, {"measurement": "inhibition at 6.25 ppm", "setting": "AtPPO1 Y361D", "value": 33, "unit": "%"}, {"measurement": "inhibition at 6.25 ppm", "setting": "AtPPO1 V447I", "value": 36, "unit": "%"}]}, {"smiles": "C#CCN1C(=O)C(F)(F)Oc2cc(F)c(-n3c(=O)n(C)c(=S)n(C)c3=O)cc21", "note": "[Herbicide B, trifludimoxazin]", "values": [{"measurement": "inhibition at 0.78 ppm", "setting": "AtPPO1 T431R", "value": 25, "unit": "%"}, {"measurement": "inhibition at 0.78 ppm", "setting": "AtPPO1 Y426T", "value": 8, "unit": "%"}, {"measurement": "inhibition at 0.78 ppm", "setting": "AtPPO1 Y361D", "value": 20, "unit": "%"}, {"measurement": "inhibition at 0.78 ppm", "setting": "AtPPO1 V447I", "value": 35, "unit": "%"}]}, {"smiles": "CC(C)N(C)S(=O)(=O)NC(=O)c1cc(-n2c(=O)cc(C(F)(F)F)n(C)c2=O)c(F)cc1Cl", "note": "[Herbicide E, saflufenacil]", "values": [{"measurement": "inhibition at 6.25 ppm", "setting": "AtPPO1 T431R", "value": 56, "unit": "%"}, {"measurement": "inhibition at 6.25 ppm", "setting": "AtPPO1 Y426T", "value": 11, "unit": "%"}, {"measurement": "inhibition at 6.25 ppm", "setting": "AtPPO1 Y361D", "value": 14, "unit": "%"}, {"measurement": "inhibition at 6.25 ppm", "setting": "AtPPO1 V447I", "value": 61, "unit": "%"}]}]}
